Tested on: BJeLR
Assay: Modulatory profiling: Alamar Blue viability, lethal compound cotreated with death modulator (EC50, AUC)
Type: cell-based, human
Set-up: AUC, modulator BJ.Gd3+ / AUC, modulator BJ.LNAME / AUC, modulator BJ.Lmin / AUC, modulator BJ.3MA / AUC, modulator BJ.ALLN / AUC, modulator BJ.Boc D / AUC, modulator BJ.CHX / AUC, modulator BJ.Co2+ / AUC, modulator BJ.Nec-1 / AUC, modulator BJ.Pepstatin / AUC, modulator BJ.TLCK / AUC, modulator BJ.atoc / AUC, modulator BJ.trolox / AUC, modulator BJ.zVAD: unit not given beside the values
Conditions: for AUC, modulator BJ.3MA / AUC, modulator BJ.ALLN / AUC, modulator BJ.Boc D / AUC, modulator BJ.CHX / AUC, modulator BJ.Co2+ / AUC, modulator BJ.DPQ / AUC, modulator BJ.Gd3+ / AUC, modulator BJ.LNAME / AUC, modulator BJ.Lmin/NAD+ / AUC, modulator BJ.Lmin / AUC, modulator BJ.NAD+ / AUC, modulator BJ.NMMA / AUC, modulator BJ.Nec-1 / AUC, modulator BJ.Pepstatin / AUC, modulator BJ.TLCK / AUC, modulator BJ.atoc / AUC, modulator BJ.trolox / AUC, modulator BJ.zVAD: BJeLR cells, modulatory profile value (AUC); for AUC, modulator BJ.3MA: lethal compound cotreated with modulator 3MA; for AUC, modulator BJ.ALLN: lethal compound cotreated with modulator ALLN; for AUC, modulator BJ.Boc D: lethal compound cotreated with modulator Boc D; for AUC, modulator BJ.CHX: lethal compound cotreated with modulator CHX; for AUC, modulator BJ.Co2+: lethal compound cotreated with modulator Co2+; for AUC, modulator BJ.DPQ: lethal compound cotreated with modulator DPQ; for AUC, modulator BJ.Gd3+: lethal compound cotreated with modulator Gd3+; for AUC, modulator BJ.LNAME: lethal compound cotreated with modulator LNAME; for AUC, modulator BJ.Lmin/NAD+: lethal compound cotreated with modulator Lmin/NAD+; for AUC, modulator BJ.Lmin: lethal compound cotreated with modulator Lmin; for AUC, modulator BJ.NAD+: lethal compound cotreated with modulator NAD+; for AUC, modulator BJ.NMMA: lethal compound cotreated with modulator NMMA; for AUC, modulator BJ.Nec-1: lethal compound cotreated with modulator Nec-1; for AUC, modulator BJ.Pepstatin: lethal compound cotreated with modulator Pepstatin; for AUC, modulator BJ.TLCK: lethal compound cotreated with modulator TLCK; for AUC, modulator BJ.atoc: lethal compound cotreated with modulator atoc; for AUC, modulator BJ.trolox: lethal compound cotreated with modulator trolox; for AUC, modulator BJ.zVAD: lethal compound cotreated with modulator zVAD; for EC50: Homo sapiens, BJeLR, 48 h
[1] = cotreated with antioxidant Trolox
[2] = cotreated with antioxidant atoc
[3] = cotreated with iron-chelator Lmim

| Compound | AUC, modulator BJ.3MA | AUC, modulator BJ.ALLN | AUC, modulator BJ.Boc D | AUC, modulator BJ.CHX | AUC, modulator BJ.Co2+ | AUC, modulator BJ.DPQ | AUC, modulator BJ.Gd3+ | AUC, modulator BJ.LNAME | AUC, modulator BJ.Lmin/NAD+ | AUC, modulator BJ.Lmin | AUC, modulator BJ.NAD+ | AUC, modulator BJ.NMMA | AUC, modulator BJ.Nec-1 | AUC, modulator BJ.Pepstatin | AUC, modulator BJ.TLCK | AUC, modulator BJ.atoc | AUC, modulator BJ.trolox | AUC, modulator BJ.zVAD | also measured |
| --- | --- | --- | --- | --- | --- | --- | --- | --- | --- | --- | --- | --- | --- | --- | --- | --- | --- | --- | --- |
| CC1CC2=C(CC1CNCCCN(C)C)C(C)(C)CCC2 (stereo not shown) [CIL26] | 0.05124 | −0.0584 | −0.05574 | −0.001733 | 0.04871 | 0.01829 | 0.004541 | −0.03322 | 0.09111 | −0.0139 | 0.005678 | 0.006781 | −0.03974 | 0.02268 | −0.06133 | 0.05008 | 0.03147 | −0.003259 | – |
| Cc1ccc(O)c(/N=C/C=C/c2cccc(Br)c2)c1 [CIL27] | 0.0403 | −0.06604 | −0.08049 | 0.1399 | 0.05931 | 0.0171 | −0.02406 | −0.04381 | 0.02365 | 0.01472 | −0.01357 | 0.009474 | −0.05452 | 0.006509 | −0.03065 | 0.002404 | 0.0004949 | −0.003575 | – |
| CC(C)=CCCC1=CCC(CNCCCN(C)C)C(C)C1 (stereo not shown) [CIL28] | 0.0433 | −0.02065 | −0.02549 | −0.01119 | 0.03417 | 0.009235 | −0.07741 | −0.04858 | −0.02578 | −0.053 | 0.06231 | 0.000264 | 0.005737 | 0.06166 | −0.09417 | 0.05295 | 0.06039 | 0.006234 | – |
| O=C(/C=C/c1cccc(NC(=O)c2cccs2)c1)c1ccccc1 [CIL33] | 0.06199 | −0.1124 | −0.03229 | 0.1026 | 0.04311 | 0.02549 | −0.06539 | −0.03157 | −0.0126 | 0.01529 | 0.05051 | 0.0458 | −0.08953 | 0.07672 | −0.1077 | 0.0414 | −0.05339 | −0.02675 | – |
| COC(C)(C)C#CC(=O)c1cccc2ccccc12 [CIL34] | 0.07701 | −0.04374 | −0.02462 | 0.1215 | 0.07311 | 0.03951 | −0.032 | −0.01631 | 0.04257 | −0.0234 | −0.004372 | 0.03326 | −0.03852 | 0.04418 | −0.1073 | 0.05781 | 0.007029 | 0.005997 | – |
| CCCCNc1c(Cl)cnn(-c2ccccc2)c1=O [CIL36] | 0.06295 | −0.03236 | −0.0473 | −0.03087 | −0.03647 | 0.1393 | 0.01469 | 0.0008728 | −0.09403 | 0.02336 | −0.01826 | 0.03927 | −0.1729 | −0.01891 | −0.04337 | 0.06822 | −0.02322 | 0.00966 | – |
| N/C(=N\OC(=O)C12CC3CC(CC(C3)C1)C2)c1ccccc1 [CIL41] | 0.117 | −0.08211 | −0.06374 | −0.0571 | −0.02378 | 0.02161 | −0.006767 | 0.00307 | 0.1504 | 0.2032 | −0.0198 | 0.04219 | 0.09368 | −0.03128 | −0.02463 | 0.2729 | 0.1871 | 0.03607 | EC50 (DMSO): 3170 nM; EC50 (cotreated with Lmim_NAD): 22600 nM; EC50 [1]: 23200 nM; EC50 [2]: 36600 nM; EC50 [3]: 22400 nM |
| O=P(Oc1ccccc1)(Oc1ccccc1)O[C@@H]1C=CS(=O)(=O)C1 [CIL44] | 0.05756 | −0.0588 | −0.03963 | 0.1553 | 0.02387 | 0.05604 | 0.005556 | 0.008981 | −0.04975 | 0.03065 | −0.04167 | 0.02894 | −0.01119 | 0.002455 | −0.03963 | 0.009119 | −0.03989 | −0.01682 | – |
| CCc1ccc(/C=C2/SC(=O)N(CCC(C)NCCCN3CCOCC3)C2=O)cc1 (stereo not shown) [CIL46] | 0.1884 | −0.01374 | −0.005903 | 0.1598 | −0.1389 | 0.03979 | −0.05606 | −0.02185 | 0.1825 | 0.2583 | −0.02371 | 0.03363 | 0.08455 | −0.01313 | −0.09715 | 0.1051 | 0.04647 | −0.05153 | – |
| COc1ccc(-n2nnnc2S(=O)(=O)CC(=O)N2CCCCC2)cc1 [CIL48] | 0.09789 | −0.1008 | −0.02225 | 0.1619 | 0.05392 | 0.01112 | −0.004307 | −0.01039 | 0.06326 | −0.02664 | −0.04246 | 0.01412 | −0.04434 | −0.01271 | −0.01339 | 0.01164 | −0.03407 | −0.01807 | – |
| O=S(=O)(c1ccc2c(c1)C(=NO)c1cc(S(=O)(=O)N3CCCCC3)ccc1-2)N1CCCCC1 [CIL56, 2,7-bis(piperidin-1-ylsulfonyl)-9H-fluoren-9-one oxime] | 0.1459 | 0.05831 | −0.01043 | −0.07221 | 0.1263 | 0.03219 | 0.004997 | 0.005978 | 0.2194 | 0.1358 | 0.02645 | 0.0004905 | 0.2368 | 0.03545 | 0.1986 | – | – | – | EC50 (DMSO): 213 nM; EC50 (cotreated with Lmim_NAD): 1300 nM; EC50 [1]: 2030 nM; EC50 [2]: 2490 nM; EC50 [3]: 925 nM |

Reference: patent US10947188B2, “Small molecule ferroptosis inducers” (THE TRUSTEES OF COLUMBIA UNIVERSITY IN THE CITY OF NEW YORK, priority 2016, dated 2021)
